Experiments:
[1] = molecular target: T1, Aldurazyme (laronidase) IDUA activity in bone marrow (Homo sapiens, UniProt P35475); test: IDUA assay in bone marrow after i.v. Aldurazyme with or without compound; format: in vivo, C57BL/6 male mice; settings: mice, compound i.v. + Aldurazyme 1.2 mg/kg i.v.
T1 construct: purchased Aldurazyme; host or cells: administered i.v. to C57BL/6 male mice
T1 sequence (P35475 26-653 limits assumed): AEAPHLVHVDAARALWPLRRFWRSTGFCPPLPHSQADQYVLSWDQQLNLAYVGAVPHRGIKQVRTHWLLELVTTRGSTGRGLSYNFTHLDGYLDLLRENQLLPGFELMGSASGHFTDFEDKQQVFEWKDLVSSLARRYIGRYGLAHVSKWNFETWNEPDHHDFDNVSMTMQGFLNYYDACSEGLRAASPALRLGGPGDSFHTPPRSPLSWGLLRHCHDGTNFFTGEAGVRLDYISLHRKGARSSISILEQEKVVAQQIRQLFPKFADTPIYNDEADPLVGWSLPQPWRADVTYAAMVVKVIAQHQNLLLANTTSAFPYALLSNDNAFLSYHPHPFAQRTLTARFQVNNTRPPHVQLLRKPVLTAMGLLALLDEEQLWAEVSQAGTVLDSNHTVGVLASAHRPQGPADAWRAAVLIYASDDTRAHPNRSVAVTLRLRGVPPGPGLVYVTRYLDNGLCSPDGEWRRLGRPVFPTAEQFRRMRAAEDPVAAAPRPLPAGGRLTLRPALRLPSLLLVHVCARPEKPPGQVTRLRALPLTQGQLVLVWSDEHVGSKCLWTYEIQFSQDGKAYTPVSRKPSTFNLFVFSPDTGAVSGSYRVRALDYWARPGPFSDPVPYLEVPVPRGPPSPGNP
Protocol: Evaluation of IDUA activity in mouse bone joint cartilage samples obtained from BIO-PCY-19-025 study, where C57BL/6 male mice were administered with 1.2 mg/kg Aldurazyme (i.v. bolus administration) in the presence and absence of Compound A.
Groups Details: • G1: Vehicle 2 +Aldurazyme (1.2 mg/kg,i.v.,) QD×1(n=6) [vehicle 2:NMP (5%) + Solutol HS-15 (5%) + Normal saline (45%) + PEG-400 (45%)]; • G2: Compound A (5 mg/kg, i.v.) + Aldurazyme (1.2 mg/kg, i.v.) QD x 1 (n=6); • G3: Compound A (10 mg/kg, i.v.) + Aldurazyme (1.2 mg/kg, i.v.) QD x 1 (n=6); • G4: Compound A (20 mg/kg, i.v.) + Aldurazyme (1.2 mg/kg, i.v.) QD x 1 (n=6); and • G5: Naïve Control (n=6).
Bone marrow samples from mice were collected at indicated time points. After repeated freeze thaw cycles for protein extraction, bone marrow samples were diluted in formate buffer (0.4 M, pH 3.5). Total protein was estimated using Bradford reagent. 25 µl of tissue homogenate and plasma samples were added to 25 µl of 0.18 mM of 4 MUI substrate and incubated at 37° C. for 30 min. […] Plate was read at excitation 355 nm and emission 460 nm. […]
IDUA activity was assessed from 4-MU standard curve. […] Final IDUA enzyme activity was expressed as nmols/mg of protein/hr. Data was analyzed using GraphPad prism software with one way ANOVA followed by Dunnett’s comparison test. […]

[2] = In vivo safety / IV maximum tolerated dose

SMILES: CCN(CC(=O)Nc1c(Cl)cccc1Cl)Cc1nc2ccsc2c(=O)[nH]1 [Compound A]
- IDUA enzymatic activity in bone marrow [1]: increases IDUA enzymatic activity in a panel of tissues
- safety at tested doses ([2]; i.v., all doses tested): safe at all doses tested
- MTD ([2]; mouse, in vivo, iv): 45 mg/kg
